Patent US10975037B2 (priority 2018, dated 2021)
Like-named read-outs stand apart in the source and are kept apart here.

Assays:
[1] = molecular target: full-length human RORγt (Homo sapiens (Human), UniProt P51449); assay: RORγt (full-length human) reporter assay, conditions A or B, HEK293T cells; type: cell-based; details: for inhibition at 6 µM: read-out: RORγt (FL) Reporter Assay A or B, % inhibition @ 6 μM; for IC50: RORγt (FL) Reporter Assay A or B, IC50, HEK293T cells; for inhibition at 2 µM: 2 μM compound concentration
Chain of full-length human RORγt (P51449 other isoform, or with tags, fused parts or gaps): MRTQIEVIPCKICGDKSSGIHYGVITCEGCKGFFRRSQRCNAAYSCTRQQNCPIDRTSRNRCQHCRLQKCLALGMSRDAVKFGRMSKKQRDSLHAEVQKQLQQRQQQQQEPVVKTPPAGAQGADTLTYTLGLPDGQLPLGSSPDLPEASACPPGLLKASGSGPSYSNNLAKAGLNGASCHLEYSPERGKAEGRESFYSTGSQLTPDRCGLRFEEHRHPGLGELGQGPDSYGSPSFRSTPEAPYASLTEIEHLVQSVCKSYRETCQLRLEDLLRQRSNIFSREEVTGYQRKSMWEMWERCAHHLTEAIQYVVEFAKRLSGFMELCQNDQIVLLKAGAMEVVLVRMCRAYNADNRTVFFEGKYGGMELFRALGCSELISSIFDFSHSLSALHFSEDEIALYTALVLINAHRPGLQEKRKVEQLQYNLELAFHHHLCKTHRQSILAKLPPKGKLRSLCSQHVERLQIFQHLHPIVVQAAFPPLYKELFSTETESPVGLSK
Summary of the method: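 After 16–20 h, dual firefly/Renilla luciferase luminescence was read. Firefly signal was normalized to DMSO and saturating reference compound, then to Renilla, and fitted for IC50; % inhibition is versus DMSO.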

[2] = molecular target: human RORγt ligand binding domain (RORγt LBD) (Homo sapiens (Human), UniProt P51449); assay: RORγt ThermoFluor® assay (thermal shift binding)
Chain of human RORγt ligand binding domain (RORγt LBD) (P51449 other isoform, or with tags, fused parts or gaps): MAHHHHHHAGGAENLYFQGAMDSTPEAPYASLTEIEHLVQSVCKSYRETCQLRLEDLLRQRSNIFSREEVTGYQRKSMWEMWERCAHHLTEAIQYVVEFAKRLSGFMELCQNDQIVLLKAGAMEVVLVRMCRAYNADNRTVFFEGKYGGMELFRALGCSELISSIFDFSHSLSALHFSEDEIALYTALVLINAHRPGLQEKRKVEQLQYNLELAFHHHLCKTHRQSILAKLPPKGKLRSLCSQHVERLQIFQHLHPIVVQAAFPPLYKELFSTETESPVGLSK
Summary of the method: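 Thermal shift with 0.065 mg/mL RORγt LBD and 60 μM 1,8-ANS in 100 mM Hepes pH 7.0, 10 mM NaCl, 2.5 mM GSH, 0.002% Tween-20.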

[3] = read-out: ThermoFluor® Assay, Kd
[4] = HEK-293T, 6 μM compound concentration
[5] = HEK-293T, read-out: RORγt (FL) Reporter Assay A or B, % inhibition
[6] = HEK-293T, 0.67 μM compound concentration (footnote ****), read-out: RORγt (FL) Reporter Assay A or B, % inhibition

| SMILES | IC50 [1] | Kd [2, 3] | inhibition at 2 µM [1, 5] | Kd ([2]; ThermoFluor® Assay, Kd) | other results |
| --- | --- | --- | --- | --- | --- |
| CCn1nc(C(=O)NC[C@]2(O)CC[C@@H](S(C)(=O)=O)CC2)c(Cl)c1-c1ccc(N[C@H](C)C(F)(F)F)cc1 [Example 195, 4-Chloro-1-ethyl-N-(((1s,4S)-1-hydroxy-4-(methylsulfonyl)cyclohexyl)methyl)-5-(4-(((R)-1,1,1-trifluoropropan-2-yl)amino)phenyl)-1H-pyrazole-3-carboxamide] | 300 nM | 52 nM |  |  | inhibition at 6 µM ([1]; HEK-293T): 96% |
| CCn1nc(C(=O)NC[C@]2(C#N)CC[C@H](S(C)(=O)=O)CC2)c(Cl)c1-c1ccc(N[C@H](C)C(F)(F)F)cc1OC [Example 33, 4-Chloro-N-(((1r,4R)-1-cyano-4-(methylsulfonyl)cyclohexyl)methyl)-1-ethyl-5-(2-methoxy-4-(((R)-1,1,1-trifluoropropan-2-yl)amino)phenyl)-1H-pyrazole-3-carboxamide] | 1100 nM | 450 nM |  |  | inhibition at 6 µM [1, 4]: 88% |
| CCCn1nc(C(=O)NC[C@]2(O)CC[C@@H](S(C)(=O)=O)CC2)c(Cl)c1-c1ccc(N[C@H](C)C(F)(F)F)cc1OC [Example 31, 4-Chloro-N-(((1s,4S)-1-hydroxy-4-(methylsulfonyl)cyclohexyl)methyl)-5-(2-methoxy-4-(((R)-1,1,1-trifluoropropan-2-yl)amino)phenyl)-1-propyl-1H-pyrazole-3-carboxamide] | 41 nM | 7.2 nM |  |  | inhibition at 6 µM ([1]; HEK-293T): 105% |
| CCCn1nc(C(=O)NC[C@]2(O)CC[C@@H](S(C)(=O)=O)CC2)c(Cl)c1-c1ccc(C[C@H](C)C(F)(F)F)cc1OC (single isomer, unassigned) [Example 40, 4-Chloro-N-(((1s,4R)-1-hydroxy-4-(methylsulfonyl)cyclohexyl)methyl)-5-(2-methoxy-4-((S*)-3,3,3-trifluoro-2-methylpropyl)phenyl)-1-propyl-1H-pyrazole-3-carboxamide] | 13 nM |  | 99% | 0.71 nM |  |
| CCn1nc(C(=O)NC[C@H]2CC[C@H](S(C)(=O)=O)CC2)c(Cl)c1-c1ccc(N[C@H](C)C(F)(F)F)cc1C [Example 184, 4-Chloro-1-ethyl-5-(2-methyl-4-(((R)-1,1,1-trifluoropropan-2-yl)amino)phenyl)-N-(((1r,4R)-4-(methylsulfonyl)cyclohexyl)methyl)-1H-pyrazole-3-carboxamide] | 52 nM | 13 nM | 101% |  |  |
| CCn1nc(C(=O)NC[C@H]2CC[C@H](S(C)(=O)=O)CC2)c(C)c1-c1ccc(CCCC(F)(F)F)cc1OC [Example 82, 1-Ethyl-5-(2-methoxy-4-(4,4,4-trifluorobutyl)phenyl)-4-methyl-N-(((1r,4r)-4-(methylsulfonyl)cyclohexyl)methyl)-1H-pyrazole-3-carboxamide] | 14 nM | 4.1 nM |  |  | inhibition at 0.67 µM [1, 6]: 87% |
| CCn1nc(C(=O)NC[C@]2(C(=O)O)CC[C@@H](S(C)(=O)=O)CC2)c(Cl)c1-c1ccc(CC(C)(C)C(F)(F)F)cc1OC(F)F [Example 119, (1s*,4s*)-1-((4-Chloro-5-(2-(difluoromethoxy)-4-(3,3,3-trifluoro-2,2-dimethylpropyl)phenyl)-1-ethyl-1H-pyrazole-3-carboxamido)methyl)-4-(methylsulfonyl)cyclohexane-1-carboxylic Acid] | > 6000 nM |  |  | 1500 nM | inhibition at 6 µM [1, 4]: 14% |
| CCn1nc(C(=O)NC[C@@]2(O)CC[C@@H](S(C)(=O)=O)C[C@@H]2O)c(Cl)c1-c1ccc(CC(C)(C)C(F)(F)F)cc1OC(F)F (single isomer, unassigned) [Example 49, 4-Chloro-5-(2-(difluoromethoxy)-4-(3,3,3-trifluoro-2,2-dimethylpropyl)phenyl)-N-(((1S*,2S*,4R*)-1,2-dihydroxy-4-(methylsulfonyl)cyclohexyl)methyl)-1-ethyl-1H-pyrazole-3-carboxamide] | 61 nM |  | 96% | 26 nM |  |
| CCOC(=O)[C@]1(CNC(=O)c2nn(CC)c(-c3ccc(CC(C)(C)C(F)(F)F)cc3OC(F)F)c2Cl)CC[C@@H](S(C)(=O)=O)CC1 [Example 120, Ethyl (1r*,4r*)-1-((4-chloro-5-(2-(difluoromethoxy)-4-(3,3,3-trifluoro-2,2-dimethylpropyl)phenyl)-1-ethyl-1H-pyrazole-3-carboxamido)methyl)-4-(methylsulfonyl)cyclohexane-1-carboxylate] | 28 nM |  |  | 10 nM | inhibition at […] ([1]; HEK-293T, 0.22 μM compound concentration (footnote *******), read-out: RORγt (FL) Reporter Assay A or B, % inhibition): 92% |
| CCn1nc(C(=O)NC[C@]2(O)CC[C@@H](S(C)(=O)=O)CC2)c(Cl)c1-c1ccc(CCC(F)(F)F)cc1F [Example 180, 4-Chloro-1-ethyl-5-(2-fluoro-4-(3,3,3-trifluoropropyl)phenyl)-N-(((1s,4s)-1-hydroxy-4-(methylsulfonyl)cyclohexyl)methyl)-1H-pyrazole-3-carboxamide] | 66 nM | 46 nM | 41% |  |  |
| COCCn1nc(C(=O)NC[C@H]2CC[C@H](S(C)(=O)=O)CC2)c(Cl)c1-c1ccc(CC(C)(C)C(F)(F)F)cc1OC(F)F [Example 148, 4-Chloro-5-(2-(difluoromethoxy)-4-(3,3,3-trifluoro-2,2-dimethylpropyl)phenyl)-1-(2-methoxyethyl)-N-(((1r,4r)-4-(methylsulfonyl)cyclohexyl)methyl)-1H-pyrazole-3-carboxamide] | 2 nM | 0.16 nM |  |  | inhibition at 0.67 µM [1, 6]: 91% |
| C[C@H](Cc1ccc(-c2c(Cl)c(C(=O)NC[C@]3(O)CC[C@@H](S(C)(=O)=O)CC3)nn2C)c(OC(F)F)c1)C(F)(F)F (single isomer, unassigned) [Example 152, 4-Chloro-5-(2-(difluoromethoxy)-4-((R*)-3,3,3-trifluoro-2-methylpropyl)phenyl)-N-(((1s,4S)-1-hydroxy-4-(methylsulfonyl)cyclohexyl)methyl)-1-methyl-1H-pyrazole-3-carboxamide] | 37 nM |  |  | 7.9 nM | inhibition at […] ([1]; HEK-293T, 0.33 μM compound concentration (footnote *****), read-out: RORγt (FL) Reporter Assay A or B, % inhibition): 72% |
| CCn1nc(C(=O)NC[C@H]2CC[C@H](S(C)(=O)=O)CC2)c(Cl)c1-c1c(F)cc(N[C@H](C)C(F)(F)F)cc1F [Example 196, 4-Chloro-5-(2,6-difluoro-4-(((R)-1,1,1-trifluoropropan-2-yl)amino)phenyl)-1-ethyl-N-(((1r,4R)-4-(methylsulfonyl)cyclohexyl)methyl)-1H-pyrazole-3-carboxamide] | 20 nM | 5.4 nM | 101% |  |  |
| CCn1nc(C(=O)NC[C@]2(O)CC[C@@H](S(C)(=O)=O)C[C@H]2O)c(C)c1-c1ccc(C[C@@H](C)C(F)(F)F)cc1OC(F)F (stereo in doubt) [Example 140, 5-(2-(Difluoromethoxy)-4-((R*)-3,3,3-trifluoro-2-methylpropyl)phenyl)-N-(((1R*,2R*,4R*)-1,2-dihydroxy-4-(methylsulfonyl)cyclohexyl)methyl)-1-ethyl-4-methyl-1H-pyrazole-3-carboxamide] | 15 nM |  |  | 2.4 nM | inhibition at 3 µM ([1]; HEK-293T, 3 μM compound concentration (footnote *), read-out: RORγt (FL) Reporter Assay A or B, % inhibition): 109% |
| CCn1nc(C(=O)NC[C@]2(O)CC[C@@H](S(C)(=O)=O)CC2)c(Cl)c1-c1ccc(CCC(F)(F)F)cc1Cl [Example 173, 4-Chloro-5-(2-chloro-4-(3,3,3-trifluoropropyl)phenyl)-1-ethyl-N-(((1s,4s)-1-hydroxy-4-(methylsulfonyl)cyclohexyl)methyl)-1H-pyrazole-3-carboxamide] | 28 nM | 12 nM |  |  | inhibition at 0.67 µM [1, 5]: 36% |
| CCn1nc(C(=O)NC[C@]2(O)CC[C@@H](S(C)(=O)=O)CC2)c(Cl)c1-c1ccc(CCCC(F)(F)F)cc1OC(F)F [Example 77, 4-Chloro-5-(2-(difluoromethoxy)-4-(4,4,4-trifluorobutyl)phenyl)-1-ethyl-N-(((1s,4s)-1-hydroxy-4-(methylsulfonyl)cyclohexyl)methyl)-1H-pyrazole-3-carboxamide] | 5.6 nM | 1.2 nM | 96% |  |  |
| CCn1nc(C(=O)NC[C@H]2CC[C@H](S(C)(=O)=O)CC2)c(Cl)c1-c1ccc(CC(C(F)(F)F)C(F)(F)F)cc1OC(F)F [Example 86, 4-Chloro-5-(2-(difluoromethoxy)-4-(3,3,3-trifluoro-2-(trifluoromethyl)propyl)phenyl)-1-ethyl-N-(((1r,4r)-4-(methylsulfonyl)cyclohexyl)methyl)-1H-pyrazole-3-carboxamide] | 5.6 nM | 0.17 nM |  |  | inhibition at 0.67 µM [1, 6]: 103% |
| CCn1nc(C(=O)NC[C@H]2CC[C@H](S(C)(=O)=O)CC2)c(Cl)c1-c1ccc(C2(O)CCC(C(F)(F)F)CC2)cc1OC(F)F (single isomer, unassigned) [Example 114, 4-Chloro-5-(2-(difluoromethoxy)-4-((1s*,4s*)-1-hydroxy-4-(trifluoromethyl)cyclohexyl)phenyl)-1-ethyl-N-(((1r,4r)-4-(methylsulfonyl)cyclohexyl)methyl)-1H-pyrazole-3-carboxamide] | 410 nM |  |  | 980 nM | inhibition at 1 µM ([1]; HEK-293T, 1 μM compound concentration (footnote ***), read-out: RORγt (FL) Reporter Assay A or B, % inhibition): 82% |
